# Assay results reported in patent US9873702B2, “Heterocyclic compounds as biogenic amine transport modulators” (Southern Research Institute, priority 2014, dated 2018).
# Key:
# [1] = target: dopamine transporter (DAT) (Rattus norvegicus, UniProt P23977); test: Dopamine reuptake ([^3H]dopamine uptake) inhibition in rat brain synaptosomes; settings: for IC50: DA Uptake EC50 (nM ± SD), rat caudate synaptosomes, 5 nM [^3H]dopamine, 15 min, 25° C., three experiments pooled; for Emax: read-out: DA Uptake Emax (% I ± SD)
# Sequence of dopamine transporter (DAT) (P23977 whole entry): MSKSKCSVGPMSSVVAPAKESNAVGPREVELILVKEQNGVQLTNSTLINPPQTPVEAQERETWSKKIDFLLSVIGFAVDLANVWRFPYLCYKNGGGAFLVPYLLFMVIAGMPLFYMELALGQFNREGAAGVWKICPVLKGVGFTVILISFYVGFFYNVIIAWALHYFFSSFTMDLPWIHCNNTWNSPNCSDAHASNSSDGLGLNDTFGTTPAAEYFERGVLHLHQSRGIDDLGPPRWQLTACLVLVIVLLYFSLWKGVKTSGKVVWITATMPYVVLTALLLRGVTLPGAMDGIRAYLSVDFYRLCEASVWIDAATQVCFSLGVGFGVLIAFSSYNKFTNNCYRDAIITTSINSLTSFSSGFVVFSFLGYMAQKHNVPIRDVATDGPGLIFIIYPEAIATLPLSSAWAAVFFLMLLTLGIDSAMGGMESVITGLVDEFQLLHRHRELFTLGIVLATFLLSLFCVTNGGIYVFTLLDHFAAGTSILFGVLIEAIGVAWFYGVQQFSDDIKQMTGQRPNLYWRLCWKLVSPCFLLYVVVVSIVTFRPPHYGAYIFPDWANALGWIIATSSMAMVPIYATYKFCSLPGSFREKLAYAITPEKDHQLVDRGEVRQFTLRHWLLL
Structure (SMILES),melting point,IC50 [1],Emax [1]
"c1ccc(C(CNc2nc(-c3ccc4nccn4c3)nc3ccccc23)N2CCCCC2)cc1 (stereo not drawn) [compound 119, 2-(Imidazo[1,2-A]Pyridin-6-yl)-N-(2-Phenyl-2-(Piperidin-1-yl)Ethyl)Quinazolin-4-Amine]",193 to 195 °C,117 ± 35 nM,83 ± 5%
"COc1ccc2nc(-c3cnc(N(C)C)nc3)nc(NCC(c3ccccc3)c3ccccc3)c2c1 [compound 60, 2-(2-(Dimethylamino)Pyrimidin-5-yl)-N-(2,2-Diphenylethyl)-6-Methoxyquinazolin-4-Amine]",198 °C,947 ± 402 nM,55 ± 6%
"c1ccc(C(CNc2nc(-c3ccc4nccn4c3)nc3ccccc23)c2ccccn2)cc1 (stereo not drawn) [compound 94, 2-(Imidazo[1,2-A]Pyridin-6-yl)-N-(2-Phenyl-2-(Pyridin-2-yl)Ethyl)Quinazolin-4-Amine]",238 °C,36 ± 4 nM,69 ± 1%
"c1ccc(C(CNc2nc(-c3cn[nH]c3)nc3ccccc23)c2ccccc2)cc1 [compound 75, N-(2,2-Diphenylethyl)-2-(1H-Pyrazol-4-yl)Quinazolin-4-Amine]",233 °C,62 nM,100%
"COc1cc2nc(-c3ccsc3)nc(NCC(c3ccccc3)c3ccccc3)c2cc1OC [compound 27, N-(2,2-Diphenylethyl)-6,7-Dimethoxy-2-(Thiophen-3-yl)Quinazolin-4-Amine]",92 °C,580 nM,100%
"c1ccc(C(CNc2nc(-c3cnc4nccn4c3)nc3ccccc23)c2ncccn2)cc1 (stereo not drawn) [compound 109, 2-(Imidazo[1,2-A]Pyrimidin-6-yl)-N-(2-Phenyl-2-(Pyrimidin-2-yl)Ethyl)Quinazolin-4-Amine]",180 °C,377 ± 78 nM,57 ± 2%
"c1ccc(C(CNc2nc(N3CCc4[nH]ccc4C3)nc3ccccc23)c2ccccc2)cc1 [compound 163, 2-(6,7-Dihydro-1H-Pyrrolo[3,2-C]Pyridin-5(4H)-yl)-N-(2,2-Diphenylethyl)Quinazolin-4-Amine]",166 to 168 °C,3.7 ± 1.5 nM,87 ± 6%
"c1ccc(C(CNc2nc(-c3cnc4[nH]ccc4c3)nc3ccccc23)c2ccccc2)cc1 [compound 123, N-(2,2-Diphenylethyl)-2-(1H-Pyrrolo[2,3-B]Pyridin-5-yl)Quinazolin-4-Amine]",193 °C,31 ± 5 nM,69 ± 2%
"Cc1cc2nccn2cc1-c1nc(NCCc2cccnc2)c2ccccc2n1 [compound 180, 2-(7-Methylimidazo[1,2-A]Pyridin-6-yl)-N-(2-(Pyridin-3-yl)Ethyl)Quinazolin-4-Amine]",241 to 244 °C,252 ± 22 nM,73 ± 1%
"c1ccc(OC(CNc2nc(-c3ccc4nccn4c3)nc3ccccc23)c2ccccc2)cc1 (stereo not drawn) [compound 175, 2-(Imidazo[1,2-A]Pyridin-6-yl)-N-(2-Phenoxy-2-Phenylethyl)Quinazolin-4-Amine]",286 to 288 °C,106 ± 19 nM,68 ± 2%
"CC(C)(C)OC(=O)Nc1ncc(-c2nc(NCC(c3ccccc3)c3ccccc3)c3ccccc3n2)cn1 [compound 43, Tert-Butyl (5-(4-((2,2-Diphenylethyl)Amino)Quinazolin-2-yl)Pyrimidin-2-yl)Carbamate]",189 °C,1890 nM,< 100%
"c1ccc(C(Nc2nc(-c3ccc4nccn4c3)nc3ccccc23)c2ccccc2)cc1 [compound 86, N-Benzhydryl-2-(Imidazo[1,2-A]Pyridin-6-yl)Quinazolin-4-Amine]",258 °C,55 ± 6 nM,70 ± 1%
"Cc1cc2nccn2cc1-c1nc(NC(Cc2ccccc2)c2ccccc2)c2ccccc2n1 (stereo not drawn) [compound 172, N-(1,2-Diphenylethyl)-2-(7-Methylimidazo[1,2-A]Pyridin-6-yl)Quinazolin-4-Amine]",87 to 89 °C,5 ± 1.1 nM,76 ± 2%
"Cc1cc2nccn2cc1-c1nc(NCC(c2ccccc2)C(C)C)c2ccccc2n1 (stereo not drawn) [compound 169, N-(3-Methyl-2-Phenylbutyl)-2-(7-Methylimidazo[1,2-A]Pyridin-6-yl)Quinazolin-4-Amine]",115 to 118 °C,1.8 ± 0.4 nM,64 ± 2%
"c1ccc(C2CN(c3nc(-c4ccc5nccn5c4)nc4ccccc34)Cc3ccccc32)cc1 (stereo not drawn) [compound 135, 2-(Imidazo[1,2-A]Pyridin-6-yl)-4-(4-Phenyl-3,4-Dihydroisoquinolin-2(1H)-yl)Quinazoline]",107 to 109 °C,1490 ± 342 nM,70 ± 4%
"Cn1cc(-c2nc(NCC(c3ccccc3)c3ccccc3)c3ccccc3n2)cn1 [compound 76, N-(2,2-Diphenylethyl)-2-(1-Methyl-1H-Pyrazol-4-yl)Quinazolin-4-Amine]",211 °C,170 nM,< 100%
"c1ccc(C(CNc2nc(-n3ccnc3)nc3ccccc23)c2ccccc2)cc1 [compound 48, N-(2,2-Diphenylethyl)-2-(1H-Imidazol-1-yl)Quinazolin-4-Amine]",231 °C,38 ± 5 nM,73 ± 2%
"c1ccc(C(CNc2nc(-c3ccc4nccn4c3)nc3ccccc23)N2CCCC2)cc1 (stereo not drawn) [compound 121, 2-(Imidazo[1,2-A]Pyridin-6-yl)-N-(2-Phenyl-2-(Pyrrolidin-1-yl)Ethyl)Quinazolin-4-Amine]",205 to 207 °C,170 ± 50 nM,83 ± 5%
"Cc1cc2nccn2cc1-c1nc(NCCc2ccccc2)c2ccccc2n1 [compound 160, 2-(7-Methylimidazo[1,2-A]Pyridin-6-yl)-N-Phenethylquinazolin-4-Amine]",192 to 196 °C,11 ± 1 nM,69 ± 1%
"COc1ccc2nc(-c3cccnc3)nc(NCC(c3ccccc3)c3ccccc3)c2c1 [compound 59, N-(2,2-Diphenylethyl)-6-Methoxy-2-(Pyridin-3-yl)Quinazolin-4-Amine]",77 °C,529 ± 146 nM,56 ± 3%
"COc1cc2nc(-c3cncnc3)nc(NCC(c3ccccc3)c3ccccc3)c2cc1OC [compound 25, N-(2,2-Diphenylethyl)-6,7-Dimethoxy-2-(Pyrimidin-5-yl)Quinazolin-4-Amine]",93 °C,1090 nM,< 100%
"CN(C)c1ccc(-c2nc(NC(c3ccccc3)c3ccccc3)c3ccccc3n2)cn1 [compound 92, N-Benzhydryl-2-(6-(Dimethylamino)Pyridin-3-yl)Quinazolin-4-Amine]",207 °C,34 ± 5 nM,68 ± 2%
"CC(C)(C)OC(=O)N[C@H](CNc1nc(-c2ccc3nccn3c2)nc2ccccc12)c1ccccc1 [compound 146, (S)-Tert-Butyl (2-((2-(Imidazo[1,2-A]Pyridin-6-yl)Quinazolin-4-yl)Amino)-1-Phenylethyl)Carbamate]",252 to 254 °C,414 ± 44 nM,65 ± 1%
"Nc1ncc(-c2nc(NCC(O)(c3ccccc3)c3ccccc3)c3ccccc3n2)cn1 [compound 97, 2-((2-(2-Aminopyrimidin-5-yl)Quinazolin-4-yl)Amino)-1,1-Diphenylethanol]",222 °C,665 ± 150 nM,90 ± 5%
